Experimental data reported in the NIST ThermoML archive (doi:10.1021/je301344y).

Settings: Fluid (supercritical or subcritical phases), Pulse-echo method

C=CC [propene]
Settings | speed of sound [m/s]
240 K, 7107.3 kPa | 1153.2
240 K, 8108.1 kPa | 1161.6
240 K, 9108.7 kPa | 1169.9
240 K, 10109 kPa | 1178
240 K, 12611 kPa | 1197.8
240 K, 15113 kPa | 1216.8
240 K, 17614 kPa | 1235.1
240 K, 20116 kPa | 1252.7
240 K, 25119 kPa | 1286.5
240 K, 30122 kPa | 1318.2
240 K, 35126 kPa | 1348.3
240 K, 40129 kPa | 1377
240 K, 45132 kPa | 1404.3
240 K, 50136 kPa | 1430.5
240 K, 60144 kPa | 1479.9
240.01 K, 1303 kPa | 1101.2
240.01 K, 2103.6 kPa | 1108.7
240.01 K, 3104.3 kPa | 1118
240.01 K, 4105 kPa | 1127.1
240.01 K, 5105.7 kPa | 1135.9
240.01 K, 6106.4 kPa | 1144.7
260 K, 1303.3 kPa | 970.62
260 K, 2103.9 kPa | 979.88
260 K, 3104.6 kPa | 991.17
260 K, 4105.3 kPa | 1002.2
260 K, 5106.1 kPa | 1012.9
260 K, 6106.6 kPa | 1023.3
260 K, 7107.2 kPa | 1033.5
260 K, 8107.8 kPa | 1043.4
260 K, 9108.2 kPa | 1053.1
260 K, 10109 kPa | 1062.6
260 K, 12613 kPa | 1085.6
260 K, 15114 kPa | 1107.5
260 K, 17616 kPa | 1128.4
260 K, 20118 kPa | 1148.4
260 K, 25121 kPa | 1186.3
260 K, 30124 kPa | 1221.6
260 K, 35128 kPa | 1254.8
260 K, 40131 kPa | 1286.2
260 K, 45134 kPa | 1316
260 K, 50138 kPa | 1344.4
260 K, 60145 kPa | 1397.5
260 K, 70152 kPa | 1446.7
260 K, 80158 kPa | 1492.6
260 K, 90165 kPa | 1535.6
260 K, 100172 kPa | 1576.3
280 K, 1301.6 kPa | 836.39
280 K, 2102.4 kPa | 848.18
280 K, 3103.2 kPa | 862.38
280 K, 4104 kPa | 876.04
280 K, 5104.9 kPa | 889.2
280 K, 6105.8 kPa | 901.91
280 K, 7107.3 kPa | 914.23
280 K, 8108.1 kPa | 926.15
280 K, 9108.8 kPa | 937.72
280 K, 10110 kPa | 948.97
280 K, 12611 kPa | 975.84
280 K, 15113 kPa | 1001.1
280 K, 17613 kPa | 1025
280 K, 20117 kPa | 1047.8
280 K, 25118 kPa | 1090.3
280 K, 30122 kPa | 1129.5
280 K, 35126 kPa | 1166
280 K, 40129 kPa | 1200.2
280 K, 45133 kPa | 1232.4
280 K, 50138 kPa | 1263.1
280 K, 60144 kPa | 1320
280 K, 70151 kPa | 1372.2
280 K, 80157 kPa | 1420.7
280 K, 90164 kPa | 1466.1
280 K, 100171 kPa | 1508.7
299.99 K, 1403.2 kPa | 696.05
299.99 K, 2103.7 kPa | 710.03
299.99 K, 4105.1 kPa | 746.66
299.99 K, 8107.8 kPa | 809.26
299.99 K, 15113 kPa | 898.02
299.99 K, 20116 kPa | 951.33
299.99 K, 25119 kPa | 998.93
299.99 K, 25120 kPa | 998.96
299.99 K, 30123 kPa | 1042.3
299.99 K, 35126 kPa | 1082.1
299.99 K, 40130 kPa | 1119.3
299.99 K, 50137 kPa | 1186.8
299.99 K, 60144 kPa | 1247.4
299.99 K, 70151 kPa | 1302.7
299.99 K, 80156 kPa | 1353.6
299.99 K, 80158 kPa | 1353.7
299.99 K, 90164 kPa | 1401.1
299.99 K, 100172 kPa | 1445.6
300 K, 1402.2 kPa | 696.01
300 K, 1402.5 kPa | 696
300 K, 1402.7 kPa | 696.01
300 K, 2102.7 kPa | 709.98
300 K, 2104.1 kPa | 710.04
300 K, 3103.2 kPa | 728.84
300 K, 3104.7 kPa | 728.9
300 K, 3105.1 kPa | 728.91
300 K, 4103.8 kPa | 746.6
300 K, 4105.8 kPa | 746.67
300 K, 5104.2 kPa | 763.4
300 K, 6104.7 kPa | 779.36
300 K, 6106.5 kPa | 779.42
300 K, 7107.2 kPa | 794.65
300 K, 8106 kPa | 809.21
300 K, 8107.2 kPa | 809.25
300 K, 9106.7 kPa | 823.24
300 K, 10107 kPa | 836.75
300 K, 10109 kPa | 836.79
300 K, 12611 kPa | 868.58
300 K, 15113 kPa | 898
300 K, 17613 kPa | 925.47
300 K, 20114 kPa | 951.3
300 K, 25118 kPa | 998.93
300 K, 30121 kPa | 1042.3
300 K, 35124 kPa | 1082.1
300 K, 40128 kPa | 1119.2
300 K, 45131 kPa | 1154
300 K, 50135 kPa | 1186.8
300 K, 60142 kPa | 1247.4
300 K, 70149 kPa | 1302.6
300 K, 90163 kPa | 1401.1
300 K, 100170 kPa | 1445.6
319.99 K, 22616 kPa | 886.71
319.99 K, 100172 kPa | 1386.9
320 K, 2104.4 kPa | 556.2
320 K, 3105.2 kPa | 584.43
320 K, 4105.8 kPa | 609.63
